{"source": "the supplement of paper PMC10307832", "experiment_in_all_cases": "relative viability (nuclei count vs DMSO), 5 days (fraction); higher = more cells survive", "key": {"Dinaciclib + Linsitinib": {"compound": "CCc1cnn2c(NCc3ccc[n+]([O-])c3)cc(N3CCCC[C@H]3CCO)nc12 [Dinaciclib] + C[C@]1(O)C[C@@H](c2nc(-c3ccc4ccc(-c5ccccc5)nc4c3)c3c(N)nccn32)C1 [Linsitinib] (partner 1 µM)", "outline": "(§1)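 Lung cancer cell lines were seeded in 1536-well plates and dosed by pin tool the next day, with either a single drug or a fixed anchor-drug dose combined with five library-drug doses (not always all listed) spaced in √10 steps. Five days later, one step fixed the cells and stained their nuclei (final 0.05% Triton X-100, 1% formaldehyde, 1 ug/ml Hoechst), and nuclei were counted on 4× images. Relative viability is the nuclei count in treated wells divided by the count in vehicle wells, and each value is the median of duplicate plates.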"}, "Dinaciclib + Crizotinib": {"compound": "CCc1cnn2c(NCc3ccc[n+]([O-])c3)cc(N3CCCC[C@H]3CCO)nc12 [Dinaciclib] + C[C@@H](Oc1cc(-c2cnn(C3CCNCC3)c2)cnc1N)c1c(Cl)ccc(F)c1Cl [Crizotinib] (partner 1 µM)", "outline": "as §1"}, "Dinaciclib + AZD7762": {"compound": "CCc1cnn2c(NCc3ccc[n+]([O-])c3)cc(N3CCCC[C@H]3CCO)nc12 [Dinaciclib] + NC(=O)Nc1cc(-c2cccc(F)c2)sc1C(=O)N[C@H]1CCCNC1 [AZD7762] (partner 0.2 µM)", "outline": "as §1"}, "Dinaciclib + Pictilisib": {"compound": "CCc1cnn2c(NCc3ccc[n+]([O-])c3)cc(N3CCCC[C@H]3CCO)nc12 [Dinaciclib] + CS(=O)(=O)N1CCN(Cc2cc3nc(-c4cccc5[nH]ncc45)nc(N4CCOCC4)c3s2)CC1 [Pictilisib] (partner 1 µM)", "outline": "as §1"}, "Dinaciclib + Navitoclax": {"compound": "CCc1cnn2c(NCc3ccc[n+]([O-])c3)cc(N3CCCC[C@H]3CCO)nc12 [Dinaciclib] + CC1(C)CCC(c2ccc(Cl)cc2)=C(CN2CCN(c3ccc(C(=O)NS(=O)(=O)c4ccc(N[C@H](CCN5CCOCC5)CSc5ccccc5)c(S(=O)(=O)C(F)(F)F)c4)cc3)CC2)C1 [Navitoclax] (partner 0.5 µM)", "outline": "as §1"}, "Dinaciclib + Foretinib": {"compound": "CCc1cnn2c(NCc3ccc[n+]([O-])c3)cc(N3CCCC[C@H]3CCO)nc12 [Dinaciclib] + COc1cc2c(Oc3ccc(NC(=O)C4(C(=O)Nc5ccc(F)cc5)CC4)cc3F)ccnc2cc1OCCCN1CCOCC1 [Foretinib] (partner 0.25 µM)", "outline": "as §1"}, "Dinaciclib + Lapatinib": {"compound": "CCc1cnn2c(NCc3ccc[n+]([O-])c3)cc(N3CCCC[C@H]3CCO)nc12 [Dinaciclib] + CS(=O)(=O)CCNCc1ccc(-c2ccc3ncnc(Nc4ccc(OCc5cccc(F)c5)c(Cl)c4)c3c2)o1 [Lapatinib] (partner 2 µM)", "outline": "as §1"}, "Dinaciclib + Olaparib": {"compound": "CCc1cnn2c(NCc3ccc[n+]([O-])c3)cc(N3CCCC[C@H]3CCO)nc12 [Dinaciclib] + O=C(c1cc(Cc2n[nH]c(=O)c3ccccc23)ccc1F)N1CCN(C(=O)C2CC2)CC1 [Olaparib] (partner 8 µM)", "outline": "as §1"}, "Dinaciclib + Bortezomib": {"compound": "CCc1cnn2c(NCc3ccc[n+]([O-])c3)cc(N3CCCC[C@H]3CCO)nc12 [Dinaciclib] + CC(C)C[C@H](NC(=O)[C@H](Cc1ccccc1)NC(=O)c1cnccn1)B(O)O [Bortezomib] (partner 0.002 µM)", "outline": "as §1"}, "Dinaciclib + Alpelisib": {"compound": "CCc1cnn2c(NCc3ccc[n+]([O-])c3)cc(N3CCCC[C@H]3CCO)nc12 [Dinaciclib] + Cc1nc(NC(=O)N2CCC[C@H]2C(N)=O)sc1-c1ccnc(C(C)(C)C(F)(F)F)c1 [Alpelisib] (partner 2 µM)", "outline": "as §1"}, "Dinaciclib": {"compound": "CCc1cnn2c(NCc3ccc[n+]([O-])c3)cc(N3CCCC[C@H]3CCO)nc12 [Dinaciclib]", "outline": "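Viability is treated-well nuclei as a fraction of vehicle-well nuclei, reported as the median across plates. Before counting, lung cancer cell lines were kept overnight at 37 °C in 1536-well plates, pinned with five √10-spaced library-drug doses on vehicle-anchored plates, and left 5 days without medium change, then fixed, permeabilised and Hoechst-stained in one step, imaged at 4× and counted by MetaXpress. A plate passed only if control CV was below 25% and at least one doubling occurred.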"}}, "data": [{"cell line": "NCI-H1703", "values": [{"measurement": "relative viability", "setting": "Dinaciclib + Linsitinib; first compound 0.009487 µM", "value": 0.767}, {"measurement": "relative viability", "setting": "Dinaciclib + Linsitinib; first compound 0.03 µM", "value": 0.25}, {"measurement": "relative viability", "setting": "Dinaciclib + Linsitinib; first compound 0.09487 µM", "value": 0.0664}, {"measurement": "relative viability", "setting": "Dinaciclib + Linsitinib; first compound 0.3 µM", "value": 0.0983}, {"measurement": "relative viability", "setting": "Dinaciclib + Crizotinib; first compound 0.009487 µM", "value": 0.61}, {"measurement": "relative viability", "setting": "Dinaciclib + Crizotinib; first compound 0.03 µM", "value": 0.229}, {"measurement": "relative viability", "setting": "Dinaciclib + Crizotinib; first compound 0.09487 µM", "value": 0.0855}, {"measurement": "relative viability", "setting": "Dinaciclib + Crizotinib; first compound 0.3 µM", "value": 0.106}, {"measurement": "relative viability", "setting": "Dinaciclib + AZD7762; first compound 0.009487 µM", "value": 0.132}, {"measurement": "relative viability", "setting": "Dinaciclib + AZD7762; first compound 0.03 µM", "value": 0.125}, {"measurement": "relative viability", "setting": "Dinaciclib + AZD7762; first compound 0.09487 µM", "value": 0.0862}, {"measurement": "relative viability", "setting": "Dinaciclib + AZD7762; first compound 0.3 µM", "value": 0.087}, {"measurement": "relative viability", "setting": "Dinaciclib + Pictilisib; first compound 0.009487 µM", "value": 0.26}, {"measurement": "relative viability", "setting": "Dinaciclib + Pictilisib; first compound 0.03 µM", "value": 0.154}, {"measurement": "relative viability", "setting": "Dinaciclib + Pictilisib; first compound 0.09487 µM", "value": 0.127}, {"measurement": "relative viability", "setting": "Dinaciclib + Pictilisib; first compound 0.3 µM", "value": 0.133}, {"measurement": "relative viability", "setting": "Dinaciclib + Navitoclax; first compound 0.009487 µM", "value": 1.19}, {"measurement": "relative viability", "setting": "Dinaciclib + Navitoclax; first compound 0.03 µM", "value": 0.117}, {"measurement": "relative viability", "setting": "Dinaciclib + Navitoclax; first compound 0.09487 µM", "value": 0.0887}, {"measurement": "relative viability", "setting": "Dinaciclib + Navitoclax; first compound 0.3 µM", "value": 0.114}, {"measurement": "relative viability", "setting": "Dinaciclib + Foretinib; first compound 0.009487 µM", "value": 0.39}, {"measurement": "relative viability", "setting": "Dinaciclib + Foretinib; first compound 0.03 µM", "value": 0.319}, {"measurement": "relative viability", "setting": "Dinaciclib + Foretinib; first compound 0.09487 µM", "value": 0.144}, {"measurement": "relative viability", "setting": "Dinaciclib + Foretinib; first compound 0.3 µM", "value": 0.12}, {"measurement": "relative viability", "setting": "Dinaciclib + Lapatinib; first compound 0.009487 µM", "value": 1.01}, {"measurement": "relative viability", "setting": "Dinaciclib + Lapatinib; first compound 0.03 µM", "value": 0.133}, {"measurement": "relative viability", "setting": "Dinaciclib + Lapatinib; first compound 0.09487 µM", "value": 0.114}, {"measurement": "relative viability", "setting": "Dinaciclib + Lapatinib; first compound 0.3 µM", "value": 0.134}, {"measurement": "relative viability", "setting": "Dinaciclib + Olaparib; first compound 0.009487 µM", "value": 0.475}, {"measurement": "relative viability", "setting": "Dinaciclib + Olaparib; first compound 0.03 µM", "value": 0.0997}, {"measurement": "relative viability", "setting": "Dinaciclib + Olaparib; first compound 0.09487 µM", "value": 0.0838}, {"measurement": "relative viability", "setting": "Dinaciclib + Olaparib; first compound 0.3 µM", "value": 0.113}, {"measurement": "relative viability", "setting": "Dinaciclib + Bortezomib; first compound 0.009487 µM", "value": 0.366}, {"measurement": "relative viability", "setting": "Dinaciclib + Bortezomib; first compound 0.03 µM", "value": 0.122}, {"measurement": "relative viability", "setting": "Dinaciclib + Bortezomib; first compound 0.09487 µM", "value": 0.132}, {"measurement": "relative viability", "setting": "Dinaciclib + Bortezomib; first compound 0.3 µM", "value": 0.114}, {"measurement": "relative viability", "setting": "Dinaciclib + Alpelisib; first compound 0.009487 µM", "value": 0.419}, {"measurement": "relative viability", "setting": "Dinaciclib + Alpelisib; first compound 0.03 µM", "value": 0.119}, {"measurement": "relative viability", "setting": "Dinaciclib + Alpelisib; first compound 0.09487 µM", "value": 0.0849}, {"measurement": "relative viability", "setting": "Dinaciclib + Alpelisib; first compound 0.3 µM", "value": 0.115}, {"measurement": "relative viability", "setting": "Dinaciclib; 0.009487 µM", "value": 1.16}, {"measurement": "relative viability", "setting": "Dinaciclib; 0.03 µM", "value": 0.531}, {"measurement": "relative viability", "setting": "Dinaciclib; 0.09487 µM", "value": 0.104}, {"measurement": "relative viability", "setting": "Dinaciclib; 0.3 µM", "value": 0.118}]}]}
